# Laboratory results: PubChem BioAssay (NCI)
# Several values for one entry are separate records, joined by “and”; a condition that tells them apart may be missing. Equal values may be shown once.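 Test compounds were applied to cells in 96-well plates for 48 hours at 5 doses. At the GI50, growth is halved. At the TGI there is no net growth.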
# What was measured:
# Experiment in all cases: growth of human tumour cells (NCI), 48 h
# LXFL 529 NSCLC = test system: LXFL 529 NSCLC
# XF 498 CNS = test system: XF 498 CNS
# DMS 273 small cell lung = test system: DMS 273 small cell lung
# DLD-1 colon = test system: DLD-1 colon
# M19-MEL melanoma = test system: M19-MEL melanoma
# DMS 114 small cell lung = test system: DMS 114 small cell lung
# RXF-631 renal = test system: RXF-631 renal
# MCF7 breast = test system: MCF7 breast
# MDA-N = test system: MDA-N
Compound,TGI (LXFL 529 NSCLC) [µM],TGI (DMS 273 small cell lung) [µM],TGI (DLD-1 colon) [µM],TGI (M19-MEL melanoma) [µM],TGI (DMS 114 small cell lung),GI50 (MCF7 breast) [µM],TGI (MCF7 breast) [µM],further results
CCCCc1c2cnccc2c(CCCC)c2c1[nH]c1ccccc12,25.6,27.9,> 100,24.9,18.3 µM,–,–,TGI (XF 498 CNS): 13.3 µM
O=C(Nc1ccccc1-c1nn(CN2CCNCC2)c(=S)n(CN2CCNCC2)c1=O)C(F)(F)F,–,35.3,33.3,32.1,34 µM,–,–,TGI (RXF-631 renal): 46.8 µM
C=CCN1/C(=C2\SC(=S)N(c3ccc(C)cc3)C2=O)Sc2c1ncn(C)c2=O,> 100,> 100,> 100,> 100,> 100 µM,–,–,TGI (XF 498 CNS): > 100 µM
COc1ccc(C(=O)CC2=Nc3nnc(CCCCCCCc4nnc5n4C(=O)C(CC(=O)c4ccc(OC)cc4)=N5)n3C2=O)cc1,> 100,–,> 100,> 100,> 100 µM,–,–,TGI (XF 498 CNS): > 100 µM; TGI (RXF-631 renal): > 100 µM
CCCN(CCC)C(=O)c1nc(N)nc(-c2ccc(OC)cc2)c1-c1ccc(OC)cc1,> 100,> 100,> 100,–,> 100 µM,–,–,TGI (XF 498 CNS): > 100 µM; TGI (RXF-631 renal): > 100 µM
Nc1nc2cc(CC[C@H]3C[C@@H](n4ccc5c(N)ncnc54)[C@H](O)[C@@H]3O)ccc2cc1Br,–,–,–,–,–,1.82,19.1,–
COc1ccc(/C(C#N)=C/c2cc(OC)c(OC)c(OC)c2)cc1,–,–,–,–,–,11.1,> 100,–
COC1=CC(c2ccc[nH]2)=N/C1=C\c1[nH]c(C)c(CC(=O)OCc2ccccc2)c1C,–,–,–,–,–,0.397,2.85,–
COC(=O)c1c2c(c(C)[n+]([O-])c1C)C(=O)C=C(NCc1cccc(Cl)c1)C2=O,–,–,–,–,–,0.238,0.766,–
COc1cc(C(=O)O[C@H](C(=O)NCCN(C)CCNC(=O)[C@@H](OC(=O)c2cc(OC)cc3c(C)cccc23)[C@]2(C)CO2)[C@]2(C)CO2)c2cccc(C)c2c1,–,–,–,–,–,< 0.01,0.327,–
CC1=NOC(=O)/C1=C/c1ccc([N+](=O)[O-])cc1,–,> 100,> 100,–,> 100 µM,–,–,TGI (XF 498 CNS): > 100 µM; TGI (RXF-631 renal): > 100 µM
COC(=O)[C@@H](C)[C@H]1CC[C@@](C)(CCC2=C(C)CC3C=C(C)CCC3C2(C)C)OO1 (some centres undefined),2.2,4.43,2.54,3.75,4.04 µM,–,–,TGI (RXF-631 renal): 4.63 µM
COC1CCC(OC)C(C2(C3CC(OC)CCC3OC)OC(=O)c3ccccc32)C1 (centres undefined),–,> 100,> 100,–,> 100 µM,–,–,TGI (XF 498 CNS): > 100 µM; TGI (RXF-631 renal): > 100 µM
CC(C)=CC(=O)N[C@H]1CC[C@]2(C)C3CC[C@]4(C)C(C(C)N(C)C)=CCC4C3CCC2[C@H]1O (some centres undefined),–,–,–,–,–,3.06,13.6,–
O=c1oc2cc(OC/C(=N/O)c3ccc(F)cc3)ccc2c2ccccc12,–,–,–,–,–,14.9,38.4,–
NC(N)=NC(N)=NCCCc1ccco1,–,–,–,–,–,334,> 500,–
CCC1(OC(=O)CN)C(=O)OCc2c1cc1n(c2=O)Cc2cc3ccccc3nc2-1 (centres undefined),6.06,–,> 100,0.237,0.461 µM and 1.02 µM,0.0251,–,GI50 (LXFL 529 NSCLC): 0.135 µM; GI50 (XF 498 CNS): 0.0328 µM; TGI (XF 498 CNS): 0.431 µM; GI50 (MDA-N): 0.122 µM and 0.36 µM; GI50 (M19-MEL melanoma): 0.0174 µM

Compound,TGI (LXFL 529 NSCLC) [µM],TGI (DMS 273 small cell lung) [µM],TGI (DLD-1 colon) [µM],TGI (M19-MEL melanoma) [µM],TGI (DMS 114 small cell lung),GI50 (MCF7 breast) [µM],TGI (MCF7 breast) [µM],further results
COc1ccc2oc(-c3ccc(OC)c(OC)c3OC)cc(=O)c2c1,> 100,–,> 100,> 100,> 100 µM,–,–,TGI (XF 498 CNS): > 100 µM
Nc1nc(SCc2ccccc2Cl)cc(C(=O)O)n1,–,–,–,–,–,–,> 100,TGI (MDA-N): > 100 µM
CC(=O)O[C@H]1C(=O)[C@@]2(C)[C@H]([C@H](OC(=O)c3ccccc3)[C@]3(O)C[C@H](OC(=O)[C@H](OC(=O)OC[C@H]4COC(C)(C)O4)[C@@H](NC(=O)c4ccccc4)c4ccccc4)C(C)=C1C3(C)C)[C@]1(OC(C)=O)CO[C@@H]1C[C@@H]2O,–,–,–,–,–,0.00506,> 33.3,–
O=C(CI)Nc1ccc(O)c2ccccc12,–,–,–,–,–,0.766,2.35,–
c1ccc(SC23C4C5C6C4C2C6C53)nc1 (centres undefined),> 100,> 100,> 100,> 100,> 100 µM,–,–,TGI (RXF-631 renal): > 100 µM
Cc1ccc(NC(=O)/C(Cc2cc(=O)oc3cc(O)ccc23)=N\NC(C)(C)C)cc1C,–,–,–,–,–,–,> 100,TGI (MDA-N): > 100 µM
COC(=O)C1CC(OC(C)=O)C=C2C(=O)CCC21 (centres undefined),39.3,43.8,40.7,59.9,30.8 µM,–,–,TGI (RXF-631 renal): 86.8 µM
CC(=O)/C=C/C1=C(c2csc3ccccc23)c2ccccc2CC1,–,–,–,–,–,21.8,87.8,–
COc1cc(C(C)c2cc3c(cc2OCCNC(=O)COc2cc4c(cc2C(C)c2cc(OC)c(OC)c(OC)c2)OCO4)OCO3)cc(OC)c1OC (centres undefined),> 100,> 100,> 100,> 100,> 100 µM,–,–,TGI (RXF-631 renal): > 100 µM
O=C1C(=O)c2ccccc2C(O)=C1CCCc1ccc(C2CCCCC2)cc1,–,–,–,–,–,4.17,34.2,–
C=C1C(=O)O[C@H]2[C@H]1CC/C(COC(=O)CCCc1c[nH]c3ccccc13)=C\CC[C@@]1(C)O[C@@H]21,–,–,–,–,–,1.42,3.85,–
Nc1ccc(COC(O)CN2CCCCC2)cc1[N+](=O)[O-] (centres undefined),–,–,–,–,–,–,> 100,TGI (MDA-N): > 100 µM
COC(=O)C(=O)C(C(=O)C(=O)Nc1ccccc1OC)c1nc2ccc([N+](=O)[O-])cc2[nH]c1=O (centres undefined),–,–,–,–,–,–,> 100,TGI (MDA-N): > 100 µM
CCn1c2c(c3ccccc31)[C@@H](c1ccc(Cl)cc1)CC1C(=O)N(c3ccccc3)C(=O)C21 (some centres undefined),> 100,> 100,> 100,> 100,> 100 µM,–,–,TGI (XF 498 CNS): > 100 µM
Cn1nc(C(F)(F)F)c(-c2cc(C(F)(F)F)cc(C(F)(F)F)c2)c1-c1ccc(OCc2ccc(Cl)cc2)cc1O,–,–,–,–,–,2.23,10.4,–
CC(=O)NNc1nc(C)c(C(=O)/C=C/c2ccc(Cl)cc2)s1,–,> 100,> 100,> 100,> 100 µM,–,–,–
